Experimental data from ChEMBL document CHEMBL4507272 (2021).

How the values were obtained:
[1] = tested on: Tyrosine-protein kinase ABL1 (Homo sapiens), P00519 [E255K]; details: Compound concentration 1000.0 nM
[2] = tested on: Tyrosine-protein kinase ABL1 (Homo sapiens), P00519 [H396P]; details: Compound concentration 1000.0 nM
[3] = tested on: Tyrosine-protein kinase ABL1 (Homo sapiens), P00519 [T315I]; details: Compound concentration 1000.0 nM
[4] = target: Tyrosine-protein kinase ABL1 (Homo sapiens) (UniProt P00519); details: Compound concentration 1000.0 nM
[5] = target: Atypical kinase COQ8B, mitochondrial (Homo sapiens) (UniProt Q96D53); details: Compound concentration 1000.0 nM
[6] = target: Cytoplasmic tyrosine-protein kinase BMX (Homo sapiens) (UniProt P51813); details: Compound concentration 1000.0 nM
[7] = target: Peripheral plasma membrane protein CASK (Homo sapiens) (UniProt O14936); details: Compound concentration 1000.0 nM
[8] = target: Cyclin-dependent kinase 8 (Homo sapiens) (UniProt P49336); details: Compound concentration 1000.0 nM
[9] = target: Serine/threonine-protein kinase DCLK1 (Homo sapiens) (UniProt O15075); details: Compound concentration 1000.0 nM
[10] = target: Serine/threonine-protein kinase 17A (Homo sapiens) (UniProt Q9UEE5); details: Compound concentration 1000.0 nM
[11] = target: Epidermal growth factor receptor (Homo sapiens) (UniProt P00533); details: Compound concentration 1000.0 nM
[12] = tested on: Epidermal growth factor receptor (Homo sapiens), P00533 [UNDEFINED MUTATION]; details: Compound concentration 1000.0 nM
[13] = target: Ephrin type-A receptor 5 (Homo sapiens) (UniProt P54756); details: Compound concentration 1000.0 nM
Chain of Ephrin type-A receptor 5 (Homo sapiens) (P54756 whole entry): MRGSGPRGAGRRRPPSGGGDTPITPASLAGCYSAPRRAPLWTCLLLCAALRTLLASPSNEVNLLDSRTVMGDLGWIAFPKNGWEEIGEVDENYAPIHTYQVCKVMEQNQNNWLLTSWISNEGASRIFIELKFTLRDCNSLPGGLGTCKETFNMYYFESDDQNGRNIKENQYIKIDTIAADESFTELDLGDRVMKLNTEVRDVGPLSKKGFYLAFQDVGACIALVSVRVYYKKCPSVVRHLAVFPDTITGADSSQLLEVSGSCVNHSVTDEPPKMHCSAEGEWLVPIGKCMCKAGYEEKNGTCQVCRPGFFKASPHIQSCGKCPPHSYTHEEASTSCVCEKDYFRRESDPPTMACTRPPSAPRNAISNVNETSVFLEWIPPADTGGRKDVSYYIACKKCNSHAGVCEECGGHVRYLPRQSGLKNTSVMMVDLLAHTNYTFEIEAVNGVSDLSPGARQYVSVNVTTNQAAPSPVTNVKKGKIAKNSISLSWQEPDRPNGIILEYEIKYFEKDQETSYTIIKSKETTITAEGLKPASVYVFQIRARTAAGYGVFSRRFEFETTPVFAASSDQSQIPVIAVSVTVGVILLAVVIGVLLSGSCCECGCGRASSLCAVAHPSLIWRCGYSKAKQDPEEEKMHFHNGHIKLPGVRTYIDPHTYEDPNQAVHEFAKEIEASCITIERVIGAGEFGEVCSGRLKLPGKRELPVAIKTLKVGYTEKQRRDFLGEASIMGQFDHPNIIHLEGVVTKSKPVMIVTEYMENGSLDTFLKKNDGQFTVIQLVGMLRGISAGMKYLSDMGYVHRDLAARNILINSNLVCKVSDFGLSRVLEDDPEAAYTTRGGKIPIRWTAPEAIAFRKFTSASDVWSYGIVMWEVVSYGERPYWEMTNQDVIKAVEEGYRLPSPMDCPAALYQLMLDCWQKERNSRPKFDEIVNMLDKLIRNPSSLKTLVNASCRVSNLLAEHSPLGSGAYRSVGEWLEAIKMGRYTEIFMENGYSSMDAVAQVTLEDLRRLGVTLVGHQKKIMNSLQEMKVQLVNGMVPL

[14] = target: Ephrin type-B receptor 4 (Homo sapiens) (UniProt P54760); details: Compound concentration 1000.0 nM
Chain of Ephrin type-B receptor 4 (Homo sapiens) (P54760 whole entry): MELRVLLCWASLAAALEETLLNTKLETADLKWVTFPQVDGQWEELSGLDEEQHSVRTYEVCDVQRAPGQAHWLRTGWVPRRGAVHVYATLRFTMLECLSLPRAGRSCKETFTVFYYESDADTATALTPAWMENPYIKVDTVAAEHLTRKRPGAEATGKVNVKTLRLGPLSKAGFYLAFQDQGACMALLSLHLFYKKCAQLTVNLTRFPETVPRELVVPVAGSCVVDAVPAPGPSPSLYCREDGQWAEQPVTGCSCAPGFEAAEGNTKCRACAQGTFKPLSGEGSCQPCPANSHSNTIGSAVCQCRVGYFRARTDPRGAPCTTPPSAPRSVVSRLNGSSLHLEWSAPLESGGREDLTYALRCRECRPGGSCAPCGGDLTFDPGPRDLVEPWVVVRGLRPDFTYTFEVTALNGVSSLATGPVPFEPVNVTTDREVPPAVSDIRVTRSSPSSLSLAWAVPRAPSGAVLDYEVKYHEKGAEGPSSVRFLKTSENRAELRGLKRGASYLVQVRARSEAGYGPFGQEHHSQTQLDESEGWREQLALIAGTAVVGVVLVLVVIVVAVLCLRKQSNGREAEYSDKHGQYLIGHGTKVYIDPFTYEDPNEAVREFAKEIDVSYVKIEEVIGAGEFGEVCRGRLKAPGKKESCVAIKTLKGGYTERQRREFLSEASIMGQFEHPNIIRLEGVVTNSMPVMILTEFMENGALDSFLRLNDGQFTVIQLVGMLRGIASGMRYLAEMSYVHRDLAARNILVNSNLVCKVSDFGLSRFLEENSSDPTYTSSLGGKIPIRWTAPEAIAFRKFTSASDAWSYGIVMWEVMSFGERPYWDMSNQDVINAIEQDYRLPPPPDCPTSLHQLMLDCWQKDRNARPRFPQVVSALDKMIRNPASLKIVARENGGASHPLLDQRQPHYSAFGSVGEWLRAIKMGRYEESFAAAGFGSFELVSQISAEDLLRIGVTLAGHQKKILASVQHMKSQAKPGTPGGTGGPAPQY

[15] = target: Fibroblast growth factor receptor 4 (Homo sapiens) (UniProt P22455); details: Compound concentration 1000.0 nM
[16] = target: Receptor-type tyrosine-protein kinase FLT3 (Homo sapiens) (UniProt P36888); details: Compound concentration 1000.0 nM
[17] = target: Rhodopsin kinase GRK1 (Homo sapiens) (UniProt Q15835); details: Compound concentration 1000.0 nM
[18] = target: Hormonally up-regulated neu tumor-associated kinase (Homo sapiens) (UniProt P57058); details: Compound concentration 1000.0 nM
[19] = tested on: Mast/stem cell growth factor receptor Kit (Homo sapiens), P10721 [V559D,V654A]; details: Compound concentration 1000.0 nM
Chain of Mast/stem cell growth factor receptor Kit (Homo sapiens), P10721 [V559D,V654A] (P10721 whole entry V559D/V654A, the tested form may be a part): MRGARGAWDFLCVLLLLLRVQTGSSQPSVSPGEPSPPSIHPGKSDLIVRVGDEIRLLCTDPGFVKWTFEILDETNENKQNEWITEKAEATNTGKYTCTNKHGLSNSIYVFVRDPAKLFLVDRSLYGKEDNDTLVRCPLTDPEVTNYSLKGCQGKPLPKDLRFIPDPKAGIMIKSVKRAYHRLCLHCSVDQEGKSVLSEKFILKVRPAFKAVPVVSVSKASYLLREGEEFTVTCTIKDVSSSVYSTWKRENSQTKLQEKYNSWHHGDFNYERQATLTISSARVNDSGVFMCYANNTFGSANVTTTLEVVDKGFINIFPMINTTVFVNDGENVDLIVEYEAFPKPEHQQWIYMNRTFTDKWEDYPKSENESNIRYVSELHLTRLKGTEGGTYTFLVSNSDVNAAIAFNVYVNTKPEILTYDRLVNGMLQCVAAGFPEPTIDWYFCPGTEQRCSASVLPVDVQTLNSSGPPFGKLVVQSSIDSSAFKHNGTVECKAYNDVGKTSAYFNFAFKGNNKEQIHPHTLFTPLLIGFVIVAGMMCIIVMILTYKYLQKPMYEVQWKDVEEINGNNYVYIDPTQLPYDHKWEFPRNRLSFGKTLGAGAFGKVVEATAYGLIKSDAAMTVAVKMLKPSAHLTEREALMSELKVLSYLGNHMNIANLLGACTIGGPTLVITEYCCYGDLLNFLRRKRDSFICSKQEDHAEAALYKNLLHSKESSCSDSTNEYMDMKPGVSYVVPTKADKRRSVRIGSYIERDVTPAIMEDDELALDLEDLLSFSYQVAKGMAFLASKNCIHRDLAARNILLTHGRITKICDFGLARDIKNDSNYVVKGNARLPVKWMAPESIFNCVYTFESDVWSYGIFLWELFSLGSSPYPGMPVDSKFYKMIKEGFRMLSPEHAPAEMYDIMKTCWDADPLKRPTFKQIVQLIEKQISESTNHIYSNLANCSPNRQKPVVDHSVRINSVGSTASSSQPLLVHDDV

[20] = target: LIM domain kinase 1 (Homo sapiens) (UniProt P53667); details: Compound concentration 1000.0 nM
[21] = target: Mitogen-activated protein kinase kinase kinase 15 (Homo sapiens) (UniProt Q6ZN16); details: Compound concentration 1000.0 nM
[22] = target: Mitogen-activated protein kinase kinase kinase kinase 3 (Homo sapiens) (UniProt Q8IVH8); details: Compound concentration 1000.0 nM
[23] = target: MAP kinase-activated protein kinase 2 (Homo sapiens) (UniProt P49137); details: Compound concentration 1000.0 nM
Chain of MAP kinase-activated protein kinase 2 (Homo sapiens) (P49137 whole entry, looked up): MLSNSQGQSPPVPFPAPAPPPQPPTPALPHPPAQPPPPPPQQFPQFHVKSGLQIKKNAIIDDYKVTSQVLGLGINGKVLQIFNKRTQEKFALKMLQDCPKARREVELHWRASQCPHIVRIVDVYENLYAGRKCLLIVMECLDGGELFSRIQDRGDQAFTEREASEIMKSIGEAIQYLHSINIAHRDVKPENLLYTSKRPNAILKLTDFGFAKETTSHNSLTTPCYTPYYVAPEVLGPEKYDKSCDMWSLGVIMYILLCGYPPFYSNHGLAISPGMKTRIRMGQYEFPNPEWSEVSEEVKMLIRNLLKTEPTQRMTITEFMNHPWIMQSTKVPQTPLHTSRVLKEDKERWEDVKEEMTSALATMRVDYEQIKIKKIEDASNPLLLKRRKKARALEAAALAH

[24] = target: Serine/threonine-protein kinase MARK1 (Homo sapiens) (UniProt Q9P0L2); details: Compound concentration 1000.0 nM
[25] = target: Dual specificity mitogen-activated protein kinase kinase 3 (Homo sapiens) (UniProt P46734); details: Compound concentration 1000.0 nM
Chain of Dual specificity mitogen-activated protein kinase kinase 3 (Homo sapiens) (P46734 whole entry): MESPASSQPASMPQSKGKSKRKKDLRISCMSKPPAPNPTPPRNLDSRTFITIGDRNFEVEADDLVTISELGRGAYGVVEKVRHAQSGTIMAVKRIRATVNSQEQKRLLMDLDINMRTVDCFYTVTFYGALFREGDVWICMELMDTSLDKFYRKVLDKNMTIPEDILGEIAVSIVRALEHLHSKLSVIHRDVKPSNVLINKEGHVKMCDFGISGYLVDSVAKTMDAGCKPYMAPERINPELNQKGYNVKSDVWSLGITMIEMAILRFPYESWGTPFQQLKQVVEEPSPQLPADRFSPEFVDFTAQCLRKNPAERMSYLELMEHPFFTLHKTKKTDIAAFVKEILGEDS

[26] = target: Maternal embryonic leucine zipper kinase (Homo sapiens) (UniProt Q14680); details: Compound concentration 1000.0 nM
[27] = tested on: Hepatocyte growth factor receptor (Homo sapiens), P08581 [M1250T]; details: Compound concentration 1000.0 nM
[28] = target: MAP kinase-interacting serine/threonine-protein kinase 1 (Homo sapiens) (UniProt Q9BUB5); details: Compound concentration 1000.0 nM
Chain of MAP kinase-interacting serine/threonine-protein kinase 1 (Homo sapiens) (Q9BUB5 whole entry, looked up): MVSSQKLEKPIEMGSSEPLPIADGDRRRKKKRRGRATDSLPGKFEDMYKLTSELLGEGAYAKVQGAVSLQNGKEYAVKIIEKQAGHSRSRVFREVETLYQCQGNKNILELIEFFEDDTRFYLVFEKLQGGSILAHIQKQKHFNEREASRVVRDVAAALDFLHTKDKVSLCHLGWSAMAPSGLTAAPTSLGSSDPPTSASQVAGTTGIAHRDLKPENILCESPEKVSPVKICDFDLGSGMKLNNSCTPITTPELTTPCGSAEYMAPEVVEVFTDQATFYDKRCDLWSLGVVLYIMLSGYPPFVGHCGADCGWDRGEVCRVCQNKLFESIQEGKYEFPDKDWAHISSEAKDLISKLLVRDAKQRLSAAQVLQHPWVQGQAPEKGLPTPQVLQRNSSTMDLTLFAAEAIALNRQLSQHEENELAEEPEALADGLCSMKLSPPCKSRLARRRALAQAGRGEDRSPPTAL

[29] = target: Mitogen-activated protein kinase kinase kinase 11 (Homo sapiens) (UniProt Q16584); details: Compound concentration 1000.0 nM
[30] = target: Serine/threonine-protein kinase 4 (Homo sapiens) (UniProt Q13043); details: Compound concentration 1000.0 nM
[31] = target: Cyclin-dependent kinase 14 (Homo sapiens) (UniProt O94921); details: Compound concentration 1000.0 nM
[32] = target: Phosphatidylinositol 4-phosphate 3-kinase C2 domain-containing subunit beta (Homo sapiens) (UniProt O00750); details: Compound concentration 1000.0 nM
[33] = tested on: Phosphatidylinositol 4,5-bisphosphate 3-kinase catalytic subunit alpha isoform (Homo sapiens), P42336 [M1043I]; details: Compound concentration 1000.0 nM
[34] = target: Phosphatidylinositol 5-phosphate 4-kinase type-2 gamma (Homo sapiens) (UniProt Q8TBX8); details: Compound concentration 1000.0 nM
[35] = target: Protein kinase C epsilon type (Homo sapiens) (UniProt Q02156); details: Compound concentration 1000.0 nM
[36] = target: Protein kinase C eta type (Homo sapiens) (UniProt P24723); details: Compound concentration 1000.0 nM
[37] = target: Ribosomal protein S6 kinase alpha-2 (Homo sapiens) (UniProt Q15349); details: Compound concentration 1000.0 nM
[38] = target: Ribosomal protein S6 kinase beta-1 (Homo sapiens) (UniProt P23443); details: Compound concentration 1000.0 nM
[39] = target: Serine/threonine-protein kinase Sgk1 (Homo sapiens) (UniProt O00141); details: Compound concentration 1000.0 nM
[40] = target: Serine/threonine-protein kinase Sgk2 (Homo sapiens) (UniProt Q9HBY8); details: Compound concentration 1000.0 nM
Chain of Serine/threonine-protein kinase Sgk2 (Homo sapiens) (Q9HBY8 whole entry): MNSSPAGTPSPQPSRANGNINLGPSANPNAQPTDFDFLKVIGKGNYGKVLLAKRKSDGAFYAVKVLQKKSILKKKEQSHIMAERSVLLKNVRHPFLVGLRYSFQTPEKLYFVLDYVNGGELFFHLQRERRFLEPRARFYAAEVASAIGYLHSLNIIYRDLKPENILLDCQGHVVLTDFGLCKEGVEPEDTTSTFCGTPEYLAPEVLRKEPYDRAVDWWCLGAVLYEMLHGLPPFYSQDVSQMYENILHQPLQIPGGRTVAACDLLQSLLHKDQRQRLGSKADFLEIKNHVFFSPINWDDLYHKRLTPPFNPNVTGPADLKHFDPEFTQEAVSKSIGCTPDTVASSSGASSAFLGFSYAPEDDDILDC

[41] = target: Serine/threonine-protein kinase 35 (Homo sapiens) (UniProt Q8TDR2); details: Compound concentration 1000.0 nM
[42] = target: Dual specificity testis-specific protein kinase 1 (Homo sapiens) (UniProt Q15569); details: Compound concentration 1000.0 nM
[43] = target: Serine/threonine-protein kinase WNK2 (Homo sapiens) (UniProt Q9Y3S1); details: Compound concentration 1000.0 nM
[44] = target: D(2) dopamine receptor (Homo sapiens) (UniProt P14416); details: Compound concentration 10.0 uM
Chain of D(2) dopamine receptor (Homo sapiens) (P14416 whole entry): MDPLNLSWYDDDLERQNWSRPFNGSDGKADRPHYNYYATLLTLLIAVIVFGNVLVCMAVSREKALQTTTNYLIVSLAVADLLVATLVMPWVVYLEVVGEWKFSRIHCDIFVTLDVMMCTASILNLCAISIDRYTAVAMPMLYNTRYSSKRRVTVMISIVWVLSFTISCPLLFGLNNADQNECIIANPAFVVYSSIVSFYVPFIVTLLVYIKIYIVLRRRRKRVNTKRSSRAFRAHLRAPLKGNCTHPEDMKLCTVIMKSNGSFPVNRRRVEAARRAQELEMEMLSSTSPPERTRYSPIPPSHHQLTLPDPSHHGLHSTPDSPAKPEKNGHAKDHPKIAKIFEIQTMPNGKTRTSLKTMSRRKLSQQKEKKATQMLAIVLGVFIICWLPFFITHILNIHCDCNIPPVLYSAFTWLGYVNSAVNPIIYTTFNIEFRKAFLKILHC

[45] = target: Alpha-1B adrenergic receptor (Homo sapiens) (UniProt P35368); details: Compound concentration 10.0 uM

CC(=O)C1=C(C)N(c2cccc(C(F)(F)F)c2)C(=O)N[C@@H]1c1ccc(C#N)nc1 [BAY-678]
inactive: residual activity [1] 75% | residual activity [2] 100% | residual activity [3] 100% | residual activity [4] 83.3% | residual activity [5] 100% | residual activity [6] 97.4% | residual activity [7] 100% | residual activity [8] 65.3% | residual activity [9] 85.1% | residual activity [10] 93.7% | residual activity [11] 78.2% | residual activity [12] 78.6% | residual activity [13] 98.2% | residual activity [14] 100% | residual activity [15] 100% | residual activity [16] 100% | residual activity [17] 99.2% | residual activity [18] 80.1% | residual activity [19] 100% | residual activity [20] 70.2% | residual activity [21] 100% | residual activity [22] 83.5% | residual activity [23] 82.6% | residual activity [24] 100% | residual activity [25] 95.2% | residual activity [26] 88.2% | residual activity [27] 100% | residual activity [28] 100% | residual activity [29] 100% | residual activity [30] 97.5% | residual activity [31] 91.7% | residual activity [32] 100% | residual activity [33] 100% | residual activity [34] 80.7% | residual activity [35] 73.9% | residual activity [36] 91.3% | residual activity [37] 72.8% | residual activity [38] 93.8% | residual activity [39] 100% | residual activity [40] 100% | residual activity [41] 85.9% | residual activity [42] 100% | residual activity [43] 94% | inhibition [44] 0.569% | inhibition [45] -1.17%
